These molecules were tested against T1, hFXR (Homo sapiens, UniProt Q96RI1) (assay: In Vitro FXR Assay (TK): TK-ECRE-luc reporter in transfected CV-1 cells). Details: 18 hrs, luminescence, maximum efficacy of <25% of the Fexarmine control classified as '+'.
T1 construct: expressed in transfected cells; host or cells: CV-1 cells
T1 sequence (Q96RI1 1-486): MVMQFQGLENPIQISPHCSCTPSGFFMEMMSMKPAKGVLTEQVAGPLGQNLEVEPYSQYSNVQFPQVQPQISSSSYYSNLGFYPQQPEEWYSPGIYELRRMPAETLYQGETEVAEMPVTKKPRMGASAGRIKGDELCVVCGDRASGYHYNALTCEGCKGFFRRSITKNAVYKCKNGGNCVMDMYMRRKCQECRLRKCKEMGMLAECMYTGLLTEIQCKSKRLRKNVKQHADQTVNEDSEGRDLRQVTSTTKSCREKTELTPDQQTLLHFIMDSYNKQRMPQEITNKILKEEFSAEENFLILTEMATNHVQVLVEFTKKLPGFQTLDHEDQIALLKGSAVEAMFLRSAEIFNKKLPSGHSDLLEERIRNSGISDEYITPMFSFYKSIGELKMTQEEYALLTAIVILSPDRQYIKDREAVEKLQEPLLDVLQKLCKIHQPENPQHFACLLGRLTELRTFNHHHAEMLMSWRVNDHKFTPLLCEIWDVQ
T1 sequence (P19793 1-462 partner): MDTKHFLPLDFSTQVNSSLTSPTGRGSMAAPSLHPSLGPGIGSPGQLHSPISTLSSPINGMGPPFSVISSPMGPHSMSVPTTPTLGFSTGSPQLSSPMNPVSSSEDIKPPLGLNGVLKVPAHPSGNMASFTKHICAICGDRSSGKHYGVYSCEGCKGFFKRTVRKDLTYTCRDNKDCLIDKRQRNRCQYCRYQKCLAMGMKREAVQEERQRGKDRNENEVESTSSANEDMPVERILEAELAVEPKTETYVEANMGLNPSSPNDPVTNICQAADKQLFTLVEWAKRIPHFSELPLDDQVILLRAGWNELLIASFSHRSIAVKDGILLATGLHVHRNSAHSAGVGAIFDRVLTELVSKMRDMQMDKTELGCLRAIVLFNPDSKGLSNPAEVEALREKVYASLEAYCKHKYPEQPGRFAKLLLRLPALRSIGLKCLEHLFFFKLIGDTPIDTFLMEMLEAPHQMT
Assay type: cell-based
How it was run: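 Cells are seeded in charcoal double-stripped FBS medium, transfected overnight with FXR/RXR expression and ECRE-driven luciferase reporter plasmids, then treated with serially diluted compounds for 18 h. Lysates are measured for luciferase light output.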

Row | EC50 | SMILES
1 | ≤ 0.25 µM | COc1ccc([C@H]2CC[C@H](CN(c3cc(-c4cnn(C(C)C)c4)ccn3)C(=O)[C@H]3CC[C@H](CC(=O)O)CC3)CC2)nc1C [Compound 17.25, 2-(trans-4-((4-(1-Isopropyl-1H-pyrazol-4-yl)pyridin-2-yl)((trans-4-(5-methoxy-6-methylpyridin-2-yl)cyclohexyl)methyl)carbamoyl)cyclohexyl) acetic acid]
2 | ≤ 0.25 µM | COc1ccc([C@H]2CC[C@H](CN(c3cc(-c4cnn(C(C)C)c4)ccn3)C(=O)[C@H]3CC[C@H](CC(=O)O)CC3)CC2)cc1C#N [Compound 17.26, 2-(trans-4-(((trans-4-(3-Cyano-4-methoxyphenyl)cyclohexyl)methyl)(4-(1-isopropyl-1H-pyrazol-4-yl)pyridin-2-yl)carbamoyl)cyclohexyl)acetic acid]
3 | ≥ 1 µM | COc1ccc([C@H]2CC[C@H](CN(c3cc(-c4cnn(C(C)C)c4)ccn3)C(=O)[C@H]3CC[C@H](CC(=O)O)CC3)CC2)nc1C#N [Compound 17.27, 2-(trans-4-(((trans-4-(6-Cyano-5-methoxypyridin-2-yl)cyclohexyl)methyl)(4-(1-isopropyl-1H-pyrazol-4-yl)pyridin-2-yl)carbamoyl)cyclohexyl)acetic acid]
4 | ≤ 0.25 µM | COc1ccc([C@H]2CC[C@H](CN(c3cccc(-c4coc(C5CC5)n4)c3)C(=O)[C@H]3CC[C@H](C(=O)O)CC3)CC2)cc1C#N [Compound 18, trans-4-(((trans-4-(3-Cyano-4-methoxyphenyl)cyclohexyl)methyl)(3-(2-cyclopropyloxazol-4-yl)phenyl)carbamoyl)cyclohexanecarboxylic acid]
5 | ≤ 0.25 µM | COc1ccc([C@H]2CC[C@H](CN(c3cccc(-c4coc(C5CC5)n4)c3)C(=O)[C@H]3CC[C@H](C(=O)O)CC3)CC2)nc1C [Compound 18.01, trans-4-((3-(2-Cyclopropyloxazol-4-yl)phenyl)((trans-4-(5-methoxy-6-methylpyridin-2-yl)cyclohexyl)methyl)carbamoyl) cyclohexanecarboxylic acid]
6 | ≤ 0.25 µM | COc1ccc([C@H]2CC[C@H](CN(c3cc(-c4coc(C5CC5)n4)ccn3)C(=O)[C@H]3CC[C@H](C(=O)O)CC3)CC2)cc1C [Compound 18.02, trans-4-((4-(2-Cyclopropyloxazol-4-yl)pyridine-2-yl)((trans-4-(4-methoxy-3-methylphenyl)cyclohexyl)methyl)carbamoyl)cyclohexanecarboxylic acid]
7 | ≤ 0.25 µM | COc1ccc(C23CCC(CN(c4cc(-c5coc(C6CC6)n5)ccn4)C(=O)[C@H]4CC[C@H](C(=O)O)CC4)(CC2)CC3)cc1C [Compound 18.03, trans-4-((4-(2-Cyclopropyloxazol-4-yl)pyridin-2-yl)((4-(4-methoxy-3-methylphenyl)bicyclo[2.2.2]octan-1-yl)methyl)carbamoyl) cyclohexanecarboxylic acid]
8 | ≤ 0.25 µM | CN(C)c1ccc([C@H]2CC[C@H](CN(c3cccc(-c4coc(C5CC5)n4)c3)C(=O)[C@H]3CC[C@H](C(=O)O)CC3)CC2)cn1 [Compound 18.04, trans-4-((3-(2-Cyclopropyloxazol-4-yl)phenyl)((trans-4-(6-(dimethylamino)pyridine-3-yl)cyclohexyl)methyl)carbamoyl) cyclohexanecarboxylic acid]
9 | ≤ 0.25 µM | COc1ccc([C@H]2CC[C@H](CN(c3cccc(-c4coc(C5CC5)n4)c3)C(=O)[C@H]3CC[C@H](C(=O)O)CC3)CC2)nc1C#N [Compound 18.05, trans-4-(((trans-4-(6-Cyano-5-methoxypyridin-2-yl)cyclohexyl)methyl)(3-(2-cyclopropyloxazol-4-yl)phenyl)carbamoyl) cyclohexanecarboxylic acid]
10 | ≤ 0.25 µM | COc1ccc([C@H]2CC[C@H](CN(c3cccc(-c4cnc(C5CC5)s4)c3)C(=O)[C@H]3CC[C@H](C(=O)OC)CC3)CC2)cc1C [Compound 18.06, trans-Methyl 4-((3-(2-cyclopropylthiazol-5-yl)phenyl)((trans-4-(4-methoxy-3-methylphenyl)cyclohexyl)methyl)carbamoyl) cyclohexanecarboxylate]
11 | ≤ 0.25 µM | COc1ncc(-c2cccc(N(C[C@H]3CC[C@H](c4ccc(OC)c(C)c4)CC3)C(=O)[C@H]3CC[C@H](C(=O)OC)CC3)c2)s1 [Compound 18.07, trans-Methyl 4-(((trans-4-(4-methoxy-3-methylphenyl)cyclohexyl)methyl)(3-(2-methoxythiazol-5-yl)phenyl)carbamoyl)cyclohexanecarboxylate]
12 | ≤ 0.25 µM | COC(=O)[C@H]1CC[C@H](C(=O)N(C[C@H]2CC[C@H](c3ccc(N(C)C)nc3)CC2)c2cccc(-c3cnc(C4CC4)s3)c2)CC1 [Compound 18.08, trans-Methyl 4-((3-(2-cyclopropylthiazol-5-yl)phenyl)((trans-4-(6-(dimethylamino)pyridin-3-yl)cyclohexyl)methyl)carbamoyl) cyclohexanecarboxylate]
13 | ≤ 0.25 µM | COc1ccc([C@H]2CC[C@H](CN(c3cccc(-c4cnc(C5CC5)s4)c3)C(=O)[C@H]3CC[C@H](C(=O)OC)CC3)CC2)nc1C#N [Compound 18.09, trans-Methyl 4-(((trans-4-(6-cyano-5-methoxypyridin-2-yl)cyclohexyl)methyl)(3-(2-cyclopropylthiazol-5-yl)phenyl)carbamoyl) cyclohexanecarboxylate]
14 | ≤ 0.25 µM | COC(=O)C12CCC(C(=O)N(C[C@H]3CC[C@H](c4ccc(OC)c(C)c4)CC3)c3cccc(-c4cnc(OC)s4)c3)(CC1)CC2 [Compound 18.10, Methyl 4-(((trans-4-(4-methoxy-3-methylphenyl)cyclohexyl)methyl)(3-(2-methoxythiazol-5-yl)phenyl)carbamoyl)bicyclo[2.2.2]octane-1-carboxylate]
15 | ≥ 1 µM | COc1ncc(-c2cccc(N(C[C@H]3CC[C@H](c4ccc(OC)c(C)c4)CC3)C(=O)[C@H]3CC[C@H](OCc4ccccc4)CC3)c2)s1 [Compound 18.11, trans-4-(Benzyloxy)-N-((trans-4-(4-methoxy-3-methylphenyl)cyclohexyl)methyl)-N-(3-(2-methoxythiazol-5-yl)phenyl)cyclohexanecarboxamide]
16 | ≥ 1 µM | COc1ccc(CO[C@H]2CC[C@H](C(=O)N(C[C@H]3CC[C@H](c4ccc(OC)c(C)c4)CC3)c3cccc(-c4cnc(OC)s4)c3)CC2)cc1 [Compound 18.12, trans-N-((trans-4-(4-Methoxy-3-methylphenyl)cyclohexyl)methyl)-4-((4-methoxybenzyl)oxy)-N-(3-(2-methoxythiazol-5-yl)phenyl) cyclohexanecarboxamide]
17 | ≤ 0.25 µM | COc1ccc([C@H]2CC[C@H](CN(c3cccc(-c4cnn(C5CC5)c4)c3)C(=O)[C@H]3CC[C@H](C(=O)OC)CC3)CC2)cc1C [Compound 18.13, trans-Methyl 4-((3-(1-cyclopropyl-1H-pyrazol-4-yl)phenyl)((trans-4-(4-methoxy-3-methylphenyl)cyclohexyl)methyl)carbamoyl) cyclohexanecarboxylate]
18 | ≤ 0.25 µM | COC(=O)[C@H]1CC[C@H](C(=O)N(C[C@H]2CC[C@H](c3ccc(N(C)C)nc3)CC2)c2cccc(-c3cnn(C4CC4)c3)c2)CC1 [Compound 18.14, trans-Methyl 4-((3-(1-cyclopropyl-1H-pyrazol-4-yl)phenyl)((trans-4-(6-(dimethylamino)pyridin-3-yl)cyclohexyl)methyl)carbamoyl) cyclohexanecarboxylate]
19 | ≤ 0.25 µM | COc1ccc(C23CCC(CN(c4cccc(-c5cnn(C6CC6)c5)c4)C(=O)[C@H]4CC[C@H](NC(=O)OC(C)(C)C)CC4)(CC2)CC3)cc1C [Compound 18.15, tert-Butyl (4-((3-(1-cyclopropyl-1H-pyrazol-4-yl)phenyl)((4-(4-methoxy-3-methylphenyl)bicyclo[2.2.2]octan-1-yl)methyl)carbamoyl)cyclohexyl) trans-carbamate]
20 | ≤ 0.25 µM | COc1ccc([C@H]2CC[C@H](CN(c3cccc(-c4cnn(C(C)C)c4)c3)C(=O)[C@H]3CC[C@H](NC(=O)OC(C)(C)C)CC3)CC2)cc1C [Compound 18.16, tert-Butyl (trans-4-((3-(1-isopropyl-1H-pyrazol-4-yl)phenyl)((trans-4-(4-methoxy-3-methylphenyl)cyclohexyl)methyl)carbamoyl)cyclohexyl) carbamate]
21 | 0.25 to 1 µM | COc1ccc([C@H]2CC[C@H](CN(c3cc(-c4cnn(C5CC5)c4)ccn3)C(=O)[C@H]3CC[C@H](C(=O)OC)CC3)CC2)nc1C [Compound 18.17, trans-Methyl 4-((4-(1-cyclopropyl-1H-pyrazol-4-yl)pyridin-2-yl)((trans-4-(5-methoxy-6-methylpyridin-2-yl)cyclohexyl)methyl)carbamoyl) cyclohexanecarboxylate]

Source: patent US20220089575A1, “FARNESOID X RECEPTOR AGONISTS AND USES THEREOF” (Metacrine, Inc., priority 2017, published 2022)
